The source of these data is publication PMC10400924 (The Journal of Biological Chemistry, 2023).

For orientation: Kd means the concentration at which binding is half-saturated. A lower Kd goes with tighter binding.

In assay [1] the target is T1, IFNγR1 (Homo sapiens, UniProt P15260). To be noted: 10 μM CF, 3 h, intact NK92 cells.
Target sequence in this assay (P15260 18-489): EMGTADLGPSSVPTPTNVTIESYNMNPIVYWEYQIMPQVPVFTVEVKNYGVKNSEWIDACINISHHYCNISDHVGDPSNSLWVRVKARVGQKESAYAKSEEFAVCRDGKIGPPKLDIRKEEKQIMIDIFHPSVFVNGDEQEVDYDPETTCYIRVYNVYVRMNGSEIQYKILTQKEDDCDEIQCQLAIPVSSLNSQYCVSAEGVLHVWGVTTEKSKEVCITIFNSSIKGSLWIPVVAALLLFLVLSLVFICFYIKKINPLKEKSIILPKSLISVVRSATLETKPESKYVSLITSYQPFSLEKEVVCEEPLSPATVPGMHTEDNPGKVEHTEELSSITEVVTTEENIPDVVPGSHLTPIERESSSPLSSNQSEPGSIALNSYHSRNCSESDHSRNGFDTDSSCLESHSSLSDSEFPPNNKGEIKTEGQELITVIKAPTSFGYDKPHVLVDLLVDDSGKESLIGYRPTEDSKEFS
For assay [2], the target named is T1, IFNγR1. Nature of the assay: biochemical.
Target sequence in this assay (P15260 18-489 limits assumed): as the sequence (P15260 18-489) above
Assay [3] has as its target interferon γ receptor 1 protein (immobilised for SPR) (UniProt P15260). Nature of the assay: SPR. In general terms: In SPR one partner is held on a chip, and binding of the other changes the refractive index at the surface.
Assay [4] has the same target. The assay is described as follows: SPR. The source holds these as a separate data set.

Read-outs that look alike come from different tables or passages of the source.

Chain of interferon γ (P01579 24-161): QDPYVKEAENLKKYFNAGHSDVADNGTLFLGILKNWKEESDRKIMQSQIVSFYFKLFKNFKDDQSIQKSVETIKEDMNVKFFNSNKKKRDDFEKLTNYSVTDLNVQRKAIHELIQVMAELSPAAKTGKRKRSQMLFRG
Chain of interferon γ receptor 1 protein (immobilised for SPR) (P15260 18-489): as the sequence (P15260 18-489) above

For `COc1cc(/C=C/C(=O)O[C@H]2CC[C@]34C[C@]35CC[C@]3(C)[C@@H]([C@H](C)CCC=C(C)C)CC[C@@]3(C)[C@@H]5CC[C@H]4C2(C)C)ccc1O` [CF, Cycloartenyl ferulate], at IFNγR1 [1], the “thermal stability (CETSA)” value is reported as “When treated with CF, the thermal stability of IFNγR1 was significantly increased”. Besides, binding at IFNγR1 [2] was put at a Kd of 500 nM.
For the compound “interferon γ (from UniProt P01579 24-161) (ligand)”, the dissociation constant Kd in assay [3] amounted to 2.8 nM; in assay [4] it was 4.5 nM.
